Data taken from US7728028B2, “Substituted imidazoline compounds” (Gruenenthal GmbH, priority 2005, dated 2010).

The compounds below were run against T1, human μ-opiate receptor (Homo sapiens, UniProt P35372) (assay: Affinity for the human μ-opiate receptor ([3H]-naloxone displacement, SPA)). Conditions: Table 2, Examples 11-161; test substance 1 μmole/l; inhibition of specific [3H]-naloxone binding; CHO-K1 membranes; read-out: μ-Opioid receptor, % inhibition [1 μM].
T1 construct: purchased PerkinElmer Life Sciences, Zaventem, Belgium RB-HOM; host or cells: CHO-K1 cells (recombinant expression; membrane preparation)
Procedure, shortened: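 CHO-K1 membranes expressing the receptor, incubated 90 min at room temperature with 1 nmol/l [3H]-naloxone and WGA-SPA beads in 50 mmol/l Tris-HCl with 0.06% BSA. Non-specific binding defined with 100 μmol/l naloxone. Value is % inhibition of specific binding at 1 μmol/l test substance.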

T1 sequence (P35372 whole entry): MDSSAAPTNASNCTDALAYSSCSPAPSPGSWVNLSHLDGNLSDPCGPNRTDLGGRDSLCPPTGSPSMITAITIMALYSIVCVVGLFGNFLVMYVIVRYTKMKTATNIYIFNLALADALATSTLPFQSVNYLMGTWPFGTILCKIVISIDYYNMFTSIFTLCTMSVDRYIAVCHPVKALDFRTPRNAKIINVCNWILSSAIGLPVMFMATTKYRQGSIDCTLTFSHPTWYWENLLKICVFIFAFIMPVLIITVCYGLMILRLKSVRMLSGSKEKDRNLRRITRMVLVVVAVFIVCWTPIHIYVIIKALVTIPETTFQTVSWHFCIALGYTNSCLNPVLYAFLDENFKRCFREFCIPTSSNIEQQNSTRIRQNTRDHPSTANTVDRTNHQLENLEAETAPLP

| SMILES | inhibition at 1 µM [%] |
| --- | --- |
| COC(=O)C1(CSCc2ccccc2)N=CN(C2CCCCC2)C1CC1CCC(C(c2ccc(Cl)cc2)N(C)C)CC1 (stereo not drawn) [Example 56, 4-benzylsulfanylmethyl-5-{4-[(4-chlorophenyl)-dimethylaminomethyl]-cyclohexylmethyl}-1-cyclohexyl-4,5-dihydro-1H-imidazole-4-carboxylic acid methyl ester] | 97 |
| CCCN1C=NC(CCC)(C(=O)OC)C1CC1CCC(C(CCc2ccccc2)N(C)C)CC1 (stereo not drawn) [Example 120, 5-[4-(1-dimethylamino-3-phenylpropyl)-cyclohexylmethyl]-1,4-dipropyl-4,5-dihydro-1H-imidazole-imidazole-4-carboxylic acid methyl ester] | 62 |
| CCC(C)C1(C(=O)OC)N=CN(CCc2ccccc2)C1CC1CCC(C(c2cccc(F)c2)N(C)C)CC1 (stereo not drawn) [Example 81, 4-sec-butyl-5-{4-[dimethylamino-(3-fluorophenyl)-methyl]-cyclohexylmethyl}-1-phenethyl-4,5-dihydro-1H-imidazole-4-carboxylic acid methyl ester] | 76 |
| CCCN1C=NC(Cc2ccc(Cl)cc2)(C(=O)OC)C1C1CCC(C(c2cccc(F)c2)N(C)C)CC1 (stereo not drawn) [Example 22, 4-(4-chlorobenzyl)-5-{4-[dimethylamino-(3-fluorophenyl)-methyl]-cyclohexyl}-1-propyl-4,5-dihydro-1H-imidazole-4-carboxylic acid methyl ester] | 88 |
| COC(=O)C1(CSC)N=CN(C2CCCCC2)C1CC1CCC(C(c2ccc(F)cc2)N(C)C)CC1 (stereo not drawn) [Example 153, 1-cyclohexyl-5-{4-[dimethylamino-(4-fluorophenyl)-methyl]-cyclohexylmethyl}-4-methylsulfanylmethyl-4,5-dihydro-1H-imidazole-4-carboxylic acid methyl ester] | 93 |
| CCCN1C=NC(CCC(=O)OC)(C(=O)OC)C1CC1CCC(C(CCc2ccccc2)N(C)C)CC1 (stereo not drawn) [Example 71, 5-[4-(1-dimethylamino-3-phenylpropyl)-cyclohexylmethyl]-4-(2-methoxycarbonylethyl)-1-propyl-4,5-dihydro-1H-imidazole-4-carboxylic acid methyl ester] | 78 |
| COC(=O)C1(CCSC)N=CN(CCc2ccccc2)C1CC1CCC(C(c2ccc(F)cc2)N(C)C)CC1 (stereo not drawn) [Example 133, 5-{4-[dimethylamino-(4-fluorophenyl)-methyl]-cyclohexylmethyl}-4-(2-methylsulfanylethyl)-1-phenethyl-4,5-dihydro-1H-imidazole-4-carboxylic acid methyl ester] | 84 |
| CCCN1C=NC(C(=O)OC)(C(C)CC)C1CC1CCC(C(c2ccc(Cl)cc2)N(C)C)CC1 (stereo not drawn) [Example 62, 4-sec-butyl-5-{4-[(4-chlorophenyl)-dimethylaminomethyl]-cyclohexylmethyl}-1-propyl-4,5-dihydro-1H-imidazole-4-carboxylic acid methyl ester] | 98 |
| CCCCC1(C(=O)OC)N=CN(C2CCCCC2)C1CC1CCC(C(c2ccc(Cl)cc2)N(C)C)CC1 (stereo not drawn) [Example 19, 4-butyl-5-{4-[(4-chlorophenyl)-dimethylaminomethyl]-cyclohexylmethyl}-1-cyclohexyl-4,5-dihydro-1H-imidazole-4-carboxylic acid methyl ester] | 96 |
| CCCCN1C=NC(C)(C(=O)OC)C1CC1CCC(C(c2cccc(F)c2)N(C)C)CC1 (stereo not drawn) [Example 124, 1-butyl-5-{4-[dimethylamino-(3-fluorophenyl)-methyl]-cyclohexylmethyl}-4-methyl-4,5-dihydro-1H-imidazole-4-carboxylic acid methyl ester] | 95 |
| CCCN1C=NC(C)(C(=O)OC)C1CC1CCC(C(c2cccc(F)c2)N(C)C)CC1 (stereo not drawn) [Example 117, 5-{4-[dimethylamino-(3-fluorophenyl)-methyl]-cyclohexylmethyl}-4-methyl-1-propyl-4,5-dihydro-1H-imidazole-4-carboxylic acid methyl ester] | 88 |
| COC(=O)C1(CSCc2ccccc2)N=CN(C2CCCCC2)C1C1CCC(C(c2ccc(Cl)cc2)N(C)C)CC1 (stereo not drawn) [Example 52, 4-benzylsulfanylmethyl-5-{4-[(4-chlorophenyl)-dimethylaminomethyl]-cyclohexyl}-1-cyclohexyl-4,5-dihydro-1H-imidazole-4-carboxylic acid methyl ester] | 99 |
| COC(=O)C1(CC(C)C)N=CN(CCc2ccccc2)C1C1CCC(C(c2ccc(Cl)cc2)N(C)C)CC1 (stereo not drawn) [Example 40, 5-{4-[(4-chlorophenyl)-dimethylaminomethyl]-cyclohexyl}-4-isobutyl-1-phenethyl-4,5-dihydro-1H-imidazole-4-carboxylic acid methyl ester] | 95 |
| CCCCN1C=NC(C(=O)OC)(C(C)CC)C1CC1CCC(C(c2ccc(Cl)cc2)N(C)C)CC1 (stereo not drawn) [Example 88, 1-butyl-4-sec-butyl-5-{4-[(4-chlorophenyl)-dimethylaminomethyl]-cyclohexylmethyl}-4,5-dihydro-1H-imidazole-4-carboxylic acid methyl ester] | 98 |
| COC(=O)C1(Cc2ccc(Cl)cc2)N=CN(CCc2ccccc2)C1C1CCC(C(c2ccc(Cl)cc2)N(C)C)CC1 (stereo not drawn) [Example 41, 4-(4-chlorobenzyl)-5-{4-[(4-chlorophenyl)-dimethylaminomethyl]-cyclohexyl}-1-phenethyl-4,5-dihydro-1H-imidazole-4-carboxylic acid methyl ester] | 79 |
| CCCN1C=NC(CSCc2ccccc2)(C(=O)OC)C1CC1CCC(C(c2ccc(F)cc2)N(C)C)CC1 (stereo not drawn) [Example 161, 4-benzylsulfanylmethyl-5-{4-[dimethylamino-(4-fluorophenyl)-methyl]-cyclohexylmethyl}-1-propyl-4,5-dihydro-1H-imidazole-4-carboxylic acid methyl ester] | 91 |
| CCCCN1C=NC(CCC(=O)OC)(C(=O)OC)C1C1CCC(C(c2cccc(F)c2)N(C)C)CC1 (stereo not drawn) [Example 65, 1-butyl-5-{4-[dimethylamino-(3-fluorophenyl)-methyl]-cyclohexyl}-4-(2-methoxycarbonylethyl)-4,5-dihydro-1H-imidazole-4-carboxylic acid methyl ester] | 78 |
| CCCN1C=NC(CCC(=O)OC)(C(=O)OC)C1CC1CCC(C(c2cccc(F)c2)N(C)C)CC1 (stereo not drawn) [Example 157, 5-{4-[dimethylamino-(3-fluorophenyl)-methyl]-cyclohexylmethyl}-4-(2-methoxycarbonylethyl)-1-propyl-4,5-dihydro-1H-imidazole-4-carboxylic acid methyl ester] | 91 |
| CCCC1(C(=O)OC)N=CN(CCc2ccccc2)C1CC1CCC(C(CCc2ccccc2)N(C)C)CC1 (stereo not drawn) [Example 135, 5-[4-(1-dimethylamino-3-phenylpropyl)-cyclohexylmethyl]-1-phenethyl-4-propyl-4,5-dihydro-1H-imidazole-4-carboxylic acid methyl ester] | 85 |
| CCCCN1C=NC(CCSC)(C(=O)OC)C1CC1CCC(C(c2ccc(F)cc2)N(C)C)CC1 (stereo not drawn) [Example 126, 1-butyl-5-{4-[dimethylamino-(4-fluorophenyl)-methyl]-cyclohexylmethyl}-4-(2-methylsulfanyl-ethyl)-4,5-dihydro-1H-imidazole-4-carboxylic acid methyl ester] | 98 |
| COC(=O)C1(Cc2ccc(Cl)cc2)N=CN(C2CCCCC2)C1C1CCC(C(c2cccc(F)c2)N(C)C)CC1 (stereo not drawn) [Example 12, 4-(4-chlorobenzyl)-1-cyclohexyl-5-{4-[dimethylamino-(3-fluorophenyl)-methyl]-cyclohexyl}-4,5-dihydro-1H-imidazole-4-carboxylic acid methyl ester] | 73 |
| COC(=O)CCC1(C(=O)OC)N=CN(CCc2ccccc2)C1CC1CCC(C(CCc2ccccc2)N(C)C)CC1 (stereo not drawn) [Example 84, 5-[4-(1-dimethylamino-3-phenylpropyl)-cyclohexylmethyl]-4-(2-methoxycarbonylethyl)-1-phenethyl-4,5-dihydro-1H-imidazole-4-carboxylic acid methyl ester] | 75 |
| COC(=O)CCC1(C(=O)OC)N=CN(CCc2ccccc2)C1CC1CCC(C(c2ccc(F)cc2)N(C)C)CC1 (stereo not drawn) [Example 83, 5-{4-[dimethylamino-(4-fluorophenyl)-methyl]-cyclohexylmethyl}-4-(2-methoxycarbonylethyl)-1-phenethyl-4,5-dihydro-1H-imidazole-4-carboxylic acid methyl ester] | 77 |
| CCCCC1(C(=O)OC)N=CN(C2CCCCC2)C1C1CCC(C(c2cccc(F)c2)N(C)C)CC1 (stereo not drawn) [Example 13, 4-butyl-1-cyclohexyl-5-{4-[dimethylamino-(3-fluorophenyl)-methyl]-cyclohexyl}-4,5-dihydro-1H-imidazole-4-carboxylic acid methyl ester] | 94 |
| CCCN1C=NC(Cc2ccc(Cl)cc2)(C(=O)OC)C1C1CCC(C(c2ccc(Cl)cc2)N(C)C)CC1 (stereo not drawn) [Example 25, 4-(4-chlorobenzyl)-5-{4-[(4-chlorophenyl)-dimethylaminomethyl]-cyclohexyl}-1-propyl-4,5-dihydro-1H-imidazole-4-carboxylic acid methyl ester] | 83 |
| CCCCN1C=NC(CCC(=O)OC)(C(=O)OC)C1CC1CCC(C(c2ccc(F)cc2)N(C)C)CC1 (stereo not drawn) [Example 76, 1-butyl-5-{4-[dimethylamino-(4-fluorophenyl)-methyl]-cyclohexylmethyl}-4-(2-methoxycarbonylethyl)-4,5-dihydro-1H-imidazole-4-carboxylic acid methyl ester] | 93 |
| CCCN1C=NC(CSC)(C(=O)OC)C1C1CCC(C(c2cccc(F)c2)N(C)C)CC1 (stereo not drawn) [Example 57, 5-{4-[dimethylamino-(3-fluorophenyl)-methyl]-cyclohexyl}-4-methylsulfanylmethyl-1-propyl-4,5-dihydro-1H-imidazole-4-carboxylic acid methyl ester] | 86 |
